Experiment in all cases: relative viability (nuclei count vs DMSO), 5 days (fraction); higher = more cells survive
Compound in experiment [1]: O=c1ncccn1[C@@H]1O[C@H](CO)[C@@H](O)[C@H]1O [Zebularine] + CCNC(=O)c1noc(-c2cc(C(C)C)c(O)cc2O)c1-c1ccc(CN2CCOCC2)cc1 [Luminespib] (partner 0.01 µM)
The method, boiled down: (§1)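 Five library-drug doses in √10 steps were combined with a fixed anchor-drug dose, or a single drug was given alone, by pin tool to lung cancer cell lines in 1536-well plates the day after seeding. Nuclei were stained and counted after 5 days. Relative viability is the nuclei count in treated wells over that in vehicle wells, taken as the median of duplicate plates.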

Compound in experiment [2]: CC(C)CCN1c2nc(Nc3cc(F)c(O)c(F)c3)ncc2N(C)C(=O)C1C [BI-D1870] + COc1cccc2cc(-c3nc([C@H]4CC[C@H](C(=O)O)CC4)n4ncnc(N)c34)[nH]c12 [OSI-027] (partner 0.5 µM)
The method, boiled down: as §1

Compound in experiment [3]: O=c1ncccn1[C@@H]1O[C@H](CO)[C@@H](O)[C@H]1O [Zebularine] + CS(=O)(=O)CCNCc1ccc(-c2ccc3ncnc(Nc4ccc(OCc5cccc(F)c5)c(Cl)c4)c3c2)o1 [Lapatinib] (partner 2 µM)
The method, boiled down:
as §1

Compound in experiment [4]: O=c1ncccn1[C@@H]1O[C@H](CO)[C@@H](O)[C@H]1O [Zebularine] + NC(=O)Nc1cc(-c2cccc(F)c2)sc1C(=O)N[C@H]1CCCNC1 [AZD7762] (partner 0.2 µM)
An outline of the steps:
as §1

NCI-H2347: the relative viability in experiment [1] (first compound 1 µM) was determined as 0.504; in experiment [1] (first compound 3.162 µM), 0.418; in experiment [1] (first compound 10 µM), 0.293; in experiment [1] (first compound 31.62 µM), 0.213; in experiment [1] (first compound 100 µM), 0.28; in experiment [2] (first compound 0.04 µM) it was 0.422. Also, the relative viability was 0.458 in experiment [2] (first compound 0.1265 µM); 0.374 in experiment [2] (first compound 0.4 µM); 0.476 in experiment [2] (first compound 1.265 µM); 0.478 in experiment [2] (first compound 4 µM); 1.07 in experiment [3] (first compound 1 µM); 0.783 in experiment [3] (first compound 3.162 µM). The relative viability worked out at 0.816 in experiment [3] (first compound 10 µM); 0.628 in experiment [3] (first compound 31.62 µM); 0.45 in experiment [3] (first compound 100 µM); 0.858 in experiment [4] (first compound 1 µM); 0.788 in experiment [4] (first compound 3.162 µM); 0.609 in experiment [4] (first compound 10 µM). Besides, the figures for the relative viability in experiment [4] (first compound 31.62 µM) and in experiment [4] (first compound 100 µM) were 0.462 and 0.305, respectively.
On to NCI-H2405, for which the relative viability was determined as 0.705 in experiment [1] (first compound 1 µM); 0.779 in experiment [1] (first compound 3.162 µM); 0.651 in experiment [1] (first compound 10 µM); 0.797 in experiment [1] (first compound 31.62 µM); 0.498 in experiment [1] (first compound 100 µM); 0.675 in experiment [2] (first compound 0.04 µM). The relative viability in experiment [2] (first compound 0.1265 µM) was 0.634; in experiment [2] (first compound 0.4 µM), 0.643; in experiment [2] (first compound 1.265 µM) it was 0.688; in experiment [2] (first compound 4 µM), 0.642; in experiment [3] (first compound 1 µM) it was 1.06; in experiment [3] (first compound 3.162 µM), 0.946. The relative viability in experiment [3] (first compound 10 µM) was found to be 0.906; in experiment [3] (first compound 31.62 µM), 0.963; in experiment [3] (first compound 100 µM), 0.76; in experiment [4] (first compound 1 µM), 0.798; in experiment [4] (first compound 3.162 µM), 0.792; in experiment [4] (first compound 10 µM), 0.545. In addition, the relative viability was determined as 0.875 in experiment [4] (first compound 31.62 µM) and 0.688 in experiment [4] (first compound 100 µM).
Regarding NCI-H3122, the relative viability in experiment [1] (first compound 1 µM) stood at 0.11; in experiment [1] (first compound 3.162 µM), 0.0829; in experiment [1] (first compound 31.62 µM) it was 0.111; in experiment [1] (first compound 100 µM), 0.0803; in experiment [2] (first compound 0.04 µM), 1.08; in experiment [2] (first compound 0.1265 µM), 0.876. The relative viability in experiment [2] (first compound 0.4 µM) was determined as 0.932; in experiment [2] (first compound 1.265 µM) it was 1.07; in experiment [2] (first compound 4 µM), 0.619; in experiment [3] (first compound 1 µM) it was 1.12; in experiment [3] (first compound 3.162 µM) it was 1.05; in experiment [3] (first compound 10 µM), 0.911. Also, the relative viability in experiment [3] (first compound 31.62 µM) amounted to 1.04; in experiment [3] (first compound 100 µM), 1.05; in experiment [4] (first compound 1 µM), 1.05; in experiment [4] (first compound 3.162 µM) it was 1.12; in experiment [4] (first compound 10 µM) it was 0.846; in experiment [4] (first compound 31.62 µM), 1.04. In experiment [4] (first compound 100 µM), the relative viability worked out at 1.02.
Consider PC-3 [JPC-3], for which the relative viability was determined as 0.79 in experiment [1] (first compound 1 µM); 0.667 in experiment [1] (first compound 3.162 µM); 0.553 in experiment [1] (first compound 10 µM); 0.466 in experiment [1] (first compound 31.62 µM); 0.493 in experiment [1] (first compound 100 µM); 0.752 in experiment [2] (first compound 0.04 µM). Also, the relative viability was determined as 0.703 in experiment [2] (first compound 0.1265 µM); 0.674 in experiment [2] (first compound 0.4 µM); 0.697 in experiment [2] (first compound 1.265 µM); 0.565 in experiment [2] (first compound 4 µM); 0.479 in experiment [3] (first compound 1 µM); 0.471 in experiment [3] (first compound 3.162 µM). The relative viability in experiment [3] (first compound 10 µM) was determined as 0.412; in experiment [3] (first compound 31.62 µM) it was 0.482; in experiment [3] (first compound 100 µM), 0.411; in experiment [4] (first compound 1 µM), 0.933; in experiment [4] (first compound 3.162 µM), 0.944; in experiment [4] (first compound 10 µM), 0.618. Also, the values for the relative viability in experiment [4] (first compound 31.62 µM) and in experiment [4] (first compound 100 µM) were 0.826 and 0.611, respectively.
PC-14: the relative viability amounted to 0.107 in experiment [1] (first compound 1 µM); 0.134 in experiment [1] (first compound 3.162 µM); 0.158 in experiment [1] (first compound 10 µM); 0.131 in experiment [1] (first compound 31.62 µM); 0.157 in experiment [1] (first compound 100 µM); 0.995 in experiment [2] (first compound 0.04 µM). Further, the relative viability came to 0.626 in experiment [2] (first compound 0.1265 µM); 0.747 in experiment [2] (first compound 0.4 µM); 0.773 in experiment [2] (first compound 1.265 µM); 0.605 in experiment [2] (first compound 4 µM); 0.448 in experiment [3] (first compound 1 µM); 0.296 in experiment [3] (first compound 3.162 µM). Besides, the relative viability in experiment [3] (first compound 10 µM) was 0.201; in experiment [3] (first compound 31.62 µM), 0.163; in experiment [3] (first compound 100 µM) it was 0.126; in experiment [4] (first compound 1 µM) it was 0.471; in experiment [4] (first compound 3.162 µM) it was 0.324; in experiment [4] (first compound 10 µM) it was 0.141. Further, the relative viability came to 0.144 in experiment [4] (first compound 31.62 µM) and 0.14 in experiment [4] (first compound 100 µM).
As for RERF-LC-KJ, the relative viability in experiment [1] (first compound 1 µM) was determined as 1.29; in experiment [1] (first compound 3.162 µM), 1.17; in experiment [1] (first compound 10 µM), 0.827; in experiment [1] (first compound 31.62 µM), 1.54; in experiment [1] (first compound 100 µM) it was 1.53; in experiment [2] (first compound 0.04 µM) it was 0.595. The relative viability in experiment [2] (first compound 0.1265 µM) came out at 0.478; in experiment [2] (first compound 0.4 µM), 0.558; in experiment [2] (first compound 1.265 µM) it was 0.628; in experiment [2] (first compound 4 µM) it was 0.389; in experiment [3] (first compound 1 µM), 0.901; in experiment [3] (first compound 3.162 µM), 0.946. Also, the relative viability stood at 0.92 in experiment [3] (first compound 31.62 µM); 0.863 in experiment [3] (first compound 100 µM); 1.11 in experiment [4] (first compound 1 µM); 1 in experiment [4] (first compound 3.162 µM); 0.896 in experiment [4] (first compound 10 µM); 1.13 in experiment [4] (first compound 31.62 µM). The relative viability in experiment [4] (first compound 100 µM) came to 0.959.
